EC50, CC50 and melting point data for 48 compounds are collected here from article PMC8129498, “Synthesis, Antitumor and Antiviral In Vitro Activities of New Benzotriazole-Dicarboxamide Derivatives” (Frontiers in Chemistry, 2021).

For one data set, the system named is Poliovirus type-1 (Sb-1). In words: microbe, parasite or virus in culture. It is filed as cell-based. Particulars: Enterovirus C, Vero 76, read-out: EC50, plaque reduction Sb-1.
Data set [1] has as its system Coxsackievirus B5 (CV-B5). In words: Plaque reduction assay, CV-B5 in Vero-76 monolayers. Conditions: Enterovirus B. The data set is classed as cell-based. In general terms: In a plaque reduction assay, fewer plaques than in the control indicate reduced infectivity or spread.
The nature of data set [2]: Cytotoxicity in Vero-76 cell-line (MTT). The data set is classed as cell-based. Conditions: monkey (Cercopithecus aethiops), Vero-76 cells (mock-infected), mock-infected Vero-76 cells. How it is done:
Vero-76 cells were seeded in 96-well plates at an initial density of 5 × 10^5 cells/ml, in Dulbecco’s Modified Eagle Medium (D-MEM) with L-glutamine and 25 mg/L kanamycin, supplemented with 10% FBS. Cell cultures were then incubated at 37°C in a humidified and 5% CO2 atmosphere, in the absence or presence of serial dilutions of test compounds. The test medium used for the cytotoxic assay as well as for antiviral assay contained 1% of the appropriate serum. Cell viability was determined after 48–96 h at 37°C by MTT method for Vero-76 ([Pauwels et al., 1988]).
The extent of cell growth/viability and viral multiplication, at each drug concentration tested, were expressed as percentage of untreated controls. Concentrations resulting in 50% inhibition (CC50 or EC50) were determined by linear regression analysis.

Structures are written as SMILES.

In the case of `O=C(O)CCCCC(=O)Nc1ccc(-n2nnc3cc(Cl)c(Cl)cc32)cc1` [Compound 4c, 6-((4-(5,6-Dichloro-1H-Benzo[d][1,2,3]Triazol-1-yl)phenyl)amino)-6-oxohexanoic Acid], the melting point (commonly the temperature of the solid-liquid transition) fell in the range of 148 to 150 °C. Also, the EC50 – broadly, the midpoint of the concentration-response curve – with Poliovirus type-1 (Sb-1) is over 37 µM. In data set [1], this compound had an EC50 of 9 µM. Also, in data set [2], the CC50 (in general, the concentration at which the toxic effect on the cells reaches its halfway point) came out at 37 µM. For `O=C(CCCCC(=O)Nc1ccc(-n2nnc3cc(Cl)c(Cl)cc32)cc1)Nc1ccc(-n2nnc3cc(Cl)c(Cl)cc32)cc1`, the melting point lay in the range of 293 to 294 °C. As to `O=C(Nc1ccc(Cn2nnc3cc(Cl)c(Cl)cc32)cc1)c1ccc(C(=O)Nc2ccc(Cn3nnc4cc(Cl)c(Cl)cc43)cc2)s1`, the melting point was over 300 °C. The same measure, in the same setting: as for `O=C(Nc1ccc(Cn2nnc3ccccc32)cc1)c1ccc(C(=O)Nc2ccc(Cn3nnc4ccccc43)cc2)cc1`, the figure is over 300 °C.

As for `O=C(Nc1ccc(-n2nnc3cc(Cl)c(Cl)cc32)cc1)c1ccc(C(=O)Nc2ccc(-n3nnc4cc(Cl)c(Cl)cc43)cc2)cc1`, the melting point lay in the range of 197 to 199 °C. Compound `Cc1cc2nnn(Cc3ccc(NC(=O)CCCC(=O)O)cc3)c2cc1C` showed a melting point of 270 to 272 °C.

`Cc1cc2nnn(Cc3ccc(NC(=O)CCCCC(=O)Nc4ccc(Cn5nnc6cc(C)c(C)cc65)cc4)cc3)c2cc1C` yielded a melting point of 283 to 285 °C.

In turn, `Cc1cc2nnn(Cc3ccc(NC(=O)c4ccc(C(=O)Nc5ccc(Cn6nnc7cc(C)c(C)cc76)cc5)s4)cc3)c2cc1C` came in with a melting point of 225 to 227 °C.

`Cc1cc(CCCOc2c(C)cc(-c3noc(C(F)(F)F)n3)cc2C)on1` [P, Pleconaril, reference compound] had an EC50 in data set [1] of 0.005 µM. The compound also gave a cytotoxic concentration (CC50) in data set [2] of over 100 µM. In turn, `O=C(Nc1ccc(-n2nc3cc(Cl)c(Cl)cc3n2)cc1)c1ccc(C(=O)Nc2ccc(-n3nc4cc(Cl)c(Cl)cc4n3)cc2)cc1` returned a melting point of over 300 °C. `O=C(O)CCC(=O)Nc1ccc(-n2nnc3cc(Cl)c(Cl)cc32)cc1` [Compound 4a, 4-((4-(5,6-Dichloro-1H-Benzo[d][1,2,3]Triazol-1-yl)phenyl)amino)-4-oxobutanoic Acid] showed a melting point of 163 to 164 °C. Further, in the data set on Poliovirus type-1 (Sb-1), the EC50 was over 90 µM. In data set [1], this compound displayed an EC50 of 13 µM. The compound also yielded a CC50 in data set [2] of 90 µM.

`O=C(O)c1cccc(C(=O)Nc2ccc(-n3nc4cc(Cl)c(Cl)cc4n3)cc2)n1` registered a melting point of 240 °C. For the compound `O=C(O)CCCC(=O)Nc1ccc(-n2nnc3cc(Cl)c(Cl)cc32)cc1` [Compound 4b, 5-((4-(5,6-Dichloro-1H-Benzo[d][1,2,3]Triazol-1-yl)phenyl)amino)-5-oxopentanoic Acid], the melting point fell in the range of 106 to 108 °C. The EC50 in the data set on Poliovirus type-1 (Sb-1) came to 44 µM. Besides, the EC50 in data set [1] was 45 µM. In data set [2], the CC50 is over 100 µM. `Cc1cc2nnn(Cc3ccc(NC(=O)CCC(=O)Nc4ccc(Cn5nnc6cc(C)c(C)cc65)cc4)cc3)c2cc1C` gave a melting point of 270 to 272 °C. Same read-out and setting: as for `Cc1cc2nnn(Cc3ccc(NC(=O)CCC(=O)O)cc3)c2cc1C`, the figure is 218 to 220 °C; as for `O=C(Nc1ccc(-n2nnc3cc(Cl)c(Cl)cc32)cc1)c1cccc(C(=O)Nc2ccc(-n3nnc4cc(Cl)c(Cl)cc43)cc2)n1`, over 300 °C. On the same count and under the same terms, next, `O=C(O)c1cccc(C(=O)Nc2ccc(Cn3nnc4ccccc43)cc2)n1`: 230 to 232 °C; `O=C(O)c1ccc(C(=O)Nc2ccc(Cn3nnc4ccccc43)cc2)s1`: over 300 °C. The compound `O=C(Nc1ccc(-n2nc3cc(Cl)c(Cl)cc3n2)cc1)c1ccc(C(=O)Nc2ccc(-n3nc4cc(Cl)c(Cl)cc4n3)cc2)s1` returned a melting point of over 300 °C.

Compound `O=C(Nc1ccc(Cn2nnc3ccccc32)cc1)c1cccc(C(=O)Nc2ccc(Cn3nnc4ccccc43)cc2)n1` returned a melting point of 111 to 112 °C. `Cc1cc2nnn(Cc3ccc(NC(=O)CCCC(=O)Nc4ccc(Cn5nnc6cc(C)c(C)cc65)cc4)cc3)c2cc1C`: the melting point fell in the range of 253 to 255 °C. In turn, `O=C(O)CCC(=O)Nc1ccc(Cn2nnc3cc(Cl)c(Cl)cc32)cc1` came in with a melting point of 214 to 216 °C. Same read-out and setting: as for `O=C(O)c1cccc(C(=O)Nc2ccc(-n3nnc4cc(Cl)c(Cl)cc43)cc2)n1`, the figure is 240 °C.

Compound `O=C(O)CCC(=O)Nc1ccc(Cn2nnc3ccccc32)cc1` gave a melting point of 193 to 195 °C. Take `Cc1cc2nnn(Cc3ccc(NC(=O)/C=C/C(=O)Nc4ccc(Cn5nnc6cc(C)c(C)cc65)cc4)cc3)c2cc1C`: the melting point lay in the range of 117 to 119 °C.

`Cc1cc2nnn(Cc3ccc(NC(=O)c4ccc(C(=O)O)s4)cc3)c2cc1C` showed a melting point of over 300 °C. Consider `O=C(O)c1ccc(C(=O)Nc2ccc(Cn3nnc4ccccc43)cc2)cc1`, for which the melting point is over 300 °C.

In turn, `O=C(O)c1cccc(C(=O)Nc2ccc(Cn3nnc4cc(Cl)c(Cl)cc43)cc2)n1` returned a melting point of 175 to 177 °C. The same measure, in the same setting: next, `O=C(O)CCCCC(=O)Nc1ccc(Cn2nnc3cc(Cl)c(Cl)cc32)cc1`: 228 to 230 °C; `O=C(O)CCCCC(=O)Nc1ccc(Cn2nnc3ccccc32)cc1`: 134 to 136 °C. `O=C(CCCCC(=O)Nc1ccc(Cn2nnc3cc(Cl)c(Cl)cc32)cc1)Nc1ccc(Cn2nnc3cc(Cl)c(Cl)cc32)cc1` showed a melting point of over 300 °C. `O=C(O)CCCC(=O)Nc1ccc(Cn2nnc3ccccc32)cc1` showed a melting point of 152 to 154 °C.

`O=C(CCC(=O)Nc1ccc(Cn2nnc3cc(Cl)c(Cl)cc32)cc1)Nc1ccc(Cn2nnc3cc(Cl)c(Cl)cc32)cc1` [Compound 9a, N ^1,N ^4-Bis(4-((5,6-Dichloro-1H-Benzo[d][1,2,3]Triazol-1-yl)methyl)phenyl)Succinamide] gave a melting point of over 300 °C. Moreover, the concentration giving a half-maximal response (EC50) in the data set with Poliovirus type-1 (Sb-1) came to 43 µM. In data set [1], this compound yielded an EC50 of 23 µM. In data set [2], this compound came in with a CC50 of over 100 µM. Take `Cc1cc2nnn(Cc3ccc(NC(=O)/C=C/C(=O)O)cc3)c2cc1C`: the melting point lay in the range of 256 to 258 °C. The same measure, in the same setting: next, `O=C(Nc1ccc(-n2nc3cc(Cl)c(Cl)cc3n2)cc1)c1cccc(C(=O)Nc2ccc(-n3nc4cc(Cl)c(Cl)cc4n3)cc2)n1`: over 300 °C.

On to `Cc1cc2nnn(Cc3ccc(NC(=O)c4cccc(C(=O)Nc5ccc(Cn6nnc7cc(C)c(C)cc76)cc5)n4)cc3)c2cc1C`, for which the melting point is 186 to 188 °C. Consider `C#C[C@@]1(O)[C@H](O)[C@@H](CO)O[C@H]1n1ccc(N)nc1=O` [Compound 2ec, 2′-C-ethynyl-cytidine, reference compound], for which the EC50 with Poliovirus type-1 (Sb-1) was found to be 23 µM. In addition, the CC50 in data set [2] is over 100 µM. For the compound `Cc1cc2nnn(Cc3ccc(NC(=O)c4ccc(C(=O)O)cc4)cc3)c2cc1C`, the melting point is over 300 °C. Still for that read-out and setting: as for `Cc1cc2nnn(Cc3ccc(NC(=O)c4cccc(C(=O)O)n4)cc3)c2cc1C`, the figure is 214 to 216 °C; as for `O=C(Nc1ccc(Cn2nnc3ccccc32)cc1)c1ccc(C(=O)Nc2ccc(Cn3nnc4ccccc43)cc2)s1`, over 300 °C. `Cc1cc2nnn(Cc3ccc(NC(=O)CCCCC(=O)O)cc3)c2cc1C` came in with a melting point of 203 to 204 °C. In turn, `O=C(CCCCC(=O)Nc1ccc(Cn2nnc3ccccc32)cc1)Nc1ccc(Cn2nnc3ccccc32)cc1` yielded a melting point of 231 to 232 °C. The same measure, in the same setting: as for `O=C(Nc1ccc(Cn2nnc3cc(Cl)c(Cl)cc32)cc1)c1cccc(C(=O)Nc2ccc(Cn3nnc4cc(Cl)c(Cl)cc43)cc2)n1`, the figure is over 300 °C; as for `O=C(O)CCCC(=O)Nc1ccc(Cn2nnc3cc(Cl)c(Cl)cc32)cc1`, 173 to 175 °C.

In turn, `O=C(/C=C/C(=O)Nc1ccc(Cn2nnc3cc(Cl)c(Cl)cc32)cc1)Nc1ccc(Cn2nnc3cc(Cl)c(Cl)cc32)cc1` came in with a melting point of over 300 °C. `O=C(CCC(=O)Nc1ccc(Cn2nnc3ccccc32)cc1)Nc1ccc(Cn2nnc3ccccc32)cc1` came in with a melting point of 255 to 257 °C.

On to `O=C(CCCC(=O)Nc1ccc(Cn2nnc3ccccc32)cc1)Nc1ccc(Cn2nnc3ccccc32)cc1`, for which the melting point was in the range of 237 to 238 °C.

Turning to `O=C(CCC(=O)Nc1ccc(-n2nnc3cc(Cl)c(Cl)cc32)cc1)Nc1ccc(-n2nnc3cc(Cl)c(Cl)cc32)cc1`, the melting point was in the range of 264 to 265 °C.
